Results from the Bradley open melting point set (2014).

| Compound | melting point |
| --- | --- |
| OB(O)c1c(Cl)cccc1Cl [2,6-dichlorobenzeneboronic acid] | 152 °C |
| O=C(O)c1c(Cl)cccc1Cl [2,6-dichlorobenzoic_acid] | 144 °C |
| [O-][n+]1c(Cl)cccc1Cl [2,6-dichloropyridine n-oxide] | 138 °C |
| O=C(O)/C=C/c1c(F)cccc1F [2,6-difluorocinnamic acid] | 125 °C |
| COC1=CC(=O)C=C(OC)C1=O [2,6-dimethoxy-p-benzoquinone] | 255 °C |
| COc1cccc(OC)c1O [2,6-dimethoxyphenol] | 55 °C |
| CC1=CC(=O)C=C(C)C1=O [2,6-dimethyl-p-benzoquinone] | 70 °C |
| Cc1cccc(C)c1O [2,6-dimethylphenol] | 49 °C |
| CC(C)CCCCC(C)C [2,7-dimethyloctane] | -54 °C |
| O=C(O)c1ccccc1C(=O)Nc1cccc2ccccc12 [2-(1-Naphthylcarbamoyl)benzoic acid] | 203 °C |
| CC(Oc1cc(Cl)c(Cl)cc1Cl)C(=O)O (stereo not drawn) [2-(2,4,5-trichlorophenoxy)propionic acid] | 178 °C |
| CC(Oc1ccc(Cl)cc1Cl)C(=O)O (stereo not drawn) [2-(2,4-dichlorophenoxy)propionic acid] | 114 °C |
| CCOCCOCCO [2-(2-Ethoxyethoxy)ethanol] | -76 °C |
| O=C(O)/C=C/c1ccccc1B(O)O [2-(2-carboxyvinyl)benzeneboronic acid] | 171 °C |
| CC1(c2ccccc2B(O)O)OCCO1 [2-(2-methyl-1,3-dioxolan-2-yl)benzeneboronic acid] | 111 °C |
| CCCCOCCOCCOC(C)=O [2-(2-n-butoxyethoxy)ethyl acetate] | -32 °C |
| NC(=O)C1=C(CCc2ccccc2)CCCC1 [2-(2-phenylethyl)cyclohex-1-ene-1-carboxamide] | 113 °C |
| c1cc(C2CNCCN2)cs1 (stereo not drawn) [2-(3-thienyl)piperazine] | 98 °C |
| OCCc1ccc(OCc2ccccc2)cc1 [2-(4-benzyloxyphenyl)ethanol] | 86 °C |
| CCCC1COC(c2ccc(C#N)cc2)OC1 (stereo not drawn) [2-(4-cyanophenyl)-5-n-propyl-1,3-dioxane] | 58 °C |
| CNC(C)C(O)c1ccccc1 (stereo not drawn) [2-(Methylamino)-1-phenylpropan-1-ol] | 36 °C |
| BrCc1nc2ccccc2s1 [2-(bromomethyl)benzothiazole] | 48 °C |

Other lines, results leading:

| melting point | Compound |
| --- | --- |
| 189 °C | Fc1ccc(-c2cc3ccccc3[nH]2)cc1 [2-(4-fluorophenyl)indole] |
| 91 °C | OCCc1ccc(O)cc1 [2-(4-hydroxyphenyl)ethanol] |
| 185 °C | Oc1ccccc1-c1ccno1 [2-(5-isoxazolyl)phenol] |
| -4.5 °C | CNCCO [2-(Methylamino)ethanol] |
| 147 °C | C=CCSc1ncccc1C(=O)O [2-(allylthio)nicotinic acid] |
| 124 °C | CC(C)(C)OC(=O)Nc1ccccc1B(O)O [2-(boc-amino)benzeneboronic acid] |
| 132 °C | CCOC(=O)c1ccccc1B(O)O [2-(ethoxycarbonyl)benzeneboronic acid] |
| 38 °C | CCS(=O)(=O)CCO [2-(ethylsulfonyl)ethanol] |
| 51 °C | CCSc1ncccc1C(=O)Cl [2-(ethylthio)nicotinoyl chloride] |
| 124 °C | COC(=O)c1ccccc1S(N)(=O)=O [2-(methoxycarbonyl)benzenesulfonamide] |
| 29 °C | CS(=O)(=O)CCO [2-(methylsulfonyl)ethanol] |
| 160 °C | CSc1ccccc1B(O)O [2-(methylthio)benzeneboronic acid] |
| 167 °C | CSc1ccccc1C(=O)O [2-(methylthio)benzoic acid] |
| 44 °C | CSc1cnccn1 [2-(methylthio)pyrazine] |
| -42 °C | CCCCCCOCCO [2-(n-hexyloxy)ethanol] |
| 147 °C | CCCSc1ncccc1C(N)=O [2-(n-propylthio)nicotinamide] |
